The values below come from publication PMC3362318 (Invertebrate Neuroscience, 2012).

Structures are written as SMILES.

One assay deals with T1, Hco-L-AChR2 (Haemonchus contortus, UniProt D6MYE9+D6MYF3+D6MYF4).
T1 sequence (D6MYE9 21-498): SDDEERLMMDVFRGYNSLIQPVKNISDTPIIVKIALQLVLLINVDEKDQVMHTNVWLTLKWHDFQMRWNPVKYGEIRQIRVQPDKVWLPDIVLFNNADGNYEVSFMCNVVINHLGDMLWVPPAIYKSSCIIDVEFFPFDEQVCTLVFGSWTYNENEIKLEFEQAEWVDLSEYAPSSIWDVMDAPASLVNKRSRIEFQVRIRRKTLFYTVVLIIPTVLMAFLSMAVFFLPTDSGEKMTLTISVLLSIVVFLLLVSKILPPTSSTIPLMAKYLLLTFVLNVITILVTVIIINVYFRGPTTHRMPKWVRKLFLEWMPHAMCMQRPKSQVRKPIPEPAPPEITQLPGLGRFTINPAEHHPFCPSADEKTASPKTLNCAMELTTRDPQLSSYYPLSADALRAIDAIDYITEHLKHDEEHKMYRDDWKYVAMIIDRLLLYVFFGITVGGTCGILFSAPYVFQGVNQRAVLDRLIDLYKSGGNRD
T1 sequence (D6MYF3 20-512): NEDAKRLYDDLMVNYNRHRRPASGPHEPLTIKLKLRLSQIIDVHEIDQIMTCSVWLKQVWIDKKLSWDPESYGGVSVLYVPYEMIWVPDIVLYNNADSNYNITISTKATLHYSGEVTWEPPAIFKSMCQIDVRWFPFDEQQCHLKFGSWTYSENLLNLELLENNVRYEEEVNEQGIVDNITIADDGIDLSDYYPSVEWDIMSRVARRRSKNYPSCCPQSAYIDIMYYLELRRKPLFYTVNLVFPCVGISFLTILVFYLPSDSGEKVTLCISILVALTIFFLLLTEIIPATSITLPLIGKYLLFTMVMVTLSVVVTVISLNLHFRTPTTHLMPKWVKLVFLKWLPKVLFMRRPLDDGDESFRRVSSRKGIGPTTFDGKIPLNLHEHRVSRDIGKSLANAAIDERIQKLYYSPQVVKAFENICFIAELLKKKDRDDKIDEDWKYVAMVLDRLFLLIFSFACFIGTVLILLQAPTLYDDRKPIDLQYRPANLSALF
T1 sequence (D6MYF4 22-504): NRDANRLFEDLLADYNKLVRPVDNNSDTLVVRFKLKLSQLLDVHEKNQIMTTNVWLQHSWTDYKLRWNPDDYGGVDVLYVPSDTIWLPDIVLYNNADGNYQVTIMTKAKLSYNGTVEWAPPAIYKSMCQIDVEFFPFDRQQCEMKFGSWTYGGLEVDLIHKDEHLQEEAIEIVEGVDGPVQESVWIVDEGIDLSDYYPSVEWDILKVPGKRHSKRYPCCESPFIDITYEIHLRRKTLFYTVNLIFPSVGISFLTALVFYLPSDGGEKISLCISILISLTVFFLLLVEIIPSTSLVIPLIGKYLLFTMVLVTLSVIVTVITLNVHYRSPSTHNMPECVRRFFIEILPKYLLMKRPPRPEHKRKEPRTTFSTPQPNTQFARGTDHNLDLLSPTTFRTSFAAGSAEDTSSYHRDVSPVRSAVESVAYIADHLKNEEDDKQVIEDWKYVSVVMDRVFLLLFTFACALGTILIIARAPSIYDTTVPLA
The assay is described as follows: two-electrode voltage clamp, Xenopus oocytes, peak current. Format: cell-based. The note with it: agonist; -60 mV, 1 mM external CaCl2, pH 7.3, BAPTA-AM treated. (In two-electrode clamp one electrode senses voltage and the other passes current.)

For assay [1], the target named is T2, Hco-L-AChR1 (Haemonchus contortus, UniProt A9XX24+D6MYE9+D6MYF3+D6MYF4). The assay is described as follows: two-electrode voltage clamp, Xenopus oocytes, dose-response. Format: cell-based.
T2 sequence (A9XX24 19-536, one chain of several): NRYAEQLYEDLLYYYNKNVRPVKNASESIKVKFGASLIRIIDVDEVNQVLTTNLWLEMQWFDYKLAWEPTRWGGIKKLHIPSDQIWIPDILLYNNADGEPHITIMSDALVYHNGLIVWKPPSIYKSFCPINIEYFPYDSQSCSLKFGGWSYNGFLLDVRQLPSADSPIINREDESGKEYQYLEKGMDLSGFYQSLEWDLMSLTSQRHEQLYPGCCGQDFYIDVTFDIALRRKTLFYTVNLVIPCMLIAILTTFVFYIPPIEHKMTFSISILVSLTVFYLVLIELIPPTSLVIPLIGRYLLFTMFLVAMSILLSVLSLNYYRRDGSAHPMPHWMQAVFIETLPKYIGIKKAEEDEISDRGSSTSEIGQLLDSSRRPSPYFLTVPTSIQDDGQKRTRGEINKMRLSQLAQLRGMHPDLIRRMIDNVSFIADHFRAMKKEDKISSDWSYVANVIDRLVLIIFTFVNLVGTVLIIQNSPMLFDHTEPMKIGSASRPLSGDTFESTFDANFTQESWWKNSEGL
The target in assay [2] is T2, Hco-L-AChR1. The note with it: agonist; 30 μM; -60 mV, 1 mM external CaCl2, pH 7.3, BAPTA-AM treated.

For orientation: EC50 means the concentration at which the effect is half-maximal. Low values mean greater potency, high ones weaker potency.

Consider `c1ccc([C@H]2CN3CCSC3=N2)cc1` [Lev, levamisole], for which the “two-electrode voltage clamp, Xenopus oocytes, peak current” value (from here on “two-electrode voltage clamp”) at Hco-L-AChR2 is on record as “Hco-L-AChR2 potency series was: pyrantel > acetylcholine > nicotine > levamisole”. The EC50 at Hco-L-AChR1 [1] amounted to 6.08 ± 0.3 µM.
Consider `CN1CCC[C@H]1c1cccnc1` [Nic, nicotine], for which, on Hco-L-AChR2, the “two-electrode voltage clamp” value is “Hco-L-AChR2 potency series was: pyrantel > acetylcholine > nicotine > levamisole”.
As for `C[N+](C)(CCOc1ccccc1)Cc1ccccc1` [Beph, bephenium], a half-maximal response on Hco-L-AChR1 [1] (EC50) required 7.7 ± 0.6 µM.
`CN1CCCN=C1/C=C/c1cccs1` [Pyr, pyrantel]: the “two-electrode voltage clamp” value at Hco-L-AChR1 [2] is recorded as “levamisole > acetylcholine > pyrantel > nicotine for the Hco-L-AChR1”; on Hco-L-AChR2, “Hco-L-AChR2 potency series was: pyrantel > acetylcholine > nicotine > levamisole”.
